Source: ChEMBL document CHEMBL6153073, “Synthesis and functional screening of novel inhibitors targeting the HDAC6 zinc finger ubiquitin-binding domain” (Eur J Med Chem, 2025)
Values belong to the compound of their own block, whether it stands above or below them. Active and inactive are the calls of the source. The rule behind the calls is not given here. Where a SMILES comes first, the peptide text is derived from it. The star is where a group is joined. Cbz = O=C(OCc1ccccc1)*

Experiments:
[1] = Cytotoxicity against human Hep3B cells; type: toxicity, cell-based, Hep 3B2
[2] = system: HEL 299; assay: Cytotoxicity against human HEL 299 cells at 50 uM; type: toxicity, cell-based; settings: hel 299, 50 µM
[3] = system: MDCK; assay: Cytotoxicity against dog MDCK cells at 50 uM; type: toxicity, cell-based, Canis lupus familiaris
[4] = system: Hep 3B2; assay: Cytotoxicity against human Hep3B cells at 50 uM; type: toxicity, cell-based; settings: hep 3b2, 50 µM
[5] = system: HEp-2; assay: Cytotoxicity against human HEp-2 cells at 50 uM; type: toxicity, cell-based; settings: hep-2, 50 µM
[6] = Cytotoxicity against green monkey […] cells at 50 uM; type: toxicity, cell-based; settings: chlorocebus sabaeus
[7] = molecular target: T1, Protein deacetylase HDAC6 (Homo sapiens, UniProt Q9UBN7); assay: Displacement of FITC-labeled C-terminal ubiquitin LRLRGG peptide from HDAC6-ubiquitin binding domain (1109 to 1215 residues) (unknown origin) extracted from Escherichia coli BL21 (DE3) by FPPD assay
T1 sequence (Q9UBN7 whole entry): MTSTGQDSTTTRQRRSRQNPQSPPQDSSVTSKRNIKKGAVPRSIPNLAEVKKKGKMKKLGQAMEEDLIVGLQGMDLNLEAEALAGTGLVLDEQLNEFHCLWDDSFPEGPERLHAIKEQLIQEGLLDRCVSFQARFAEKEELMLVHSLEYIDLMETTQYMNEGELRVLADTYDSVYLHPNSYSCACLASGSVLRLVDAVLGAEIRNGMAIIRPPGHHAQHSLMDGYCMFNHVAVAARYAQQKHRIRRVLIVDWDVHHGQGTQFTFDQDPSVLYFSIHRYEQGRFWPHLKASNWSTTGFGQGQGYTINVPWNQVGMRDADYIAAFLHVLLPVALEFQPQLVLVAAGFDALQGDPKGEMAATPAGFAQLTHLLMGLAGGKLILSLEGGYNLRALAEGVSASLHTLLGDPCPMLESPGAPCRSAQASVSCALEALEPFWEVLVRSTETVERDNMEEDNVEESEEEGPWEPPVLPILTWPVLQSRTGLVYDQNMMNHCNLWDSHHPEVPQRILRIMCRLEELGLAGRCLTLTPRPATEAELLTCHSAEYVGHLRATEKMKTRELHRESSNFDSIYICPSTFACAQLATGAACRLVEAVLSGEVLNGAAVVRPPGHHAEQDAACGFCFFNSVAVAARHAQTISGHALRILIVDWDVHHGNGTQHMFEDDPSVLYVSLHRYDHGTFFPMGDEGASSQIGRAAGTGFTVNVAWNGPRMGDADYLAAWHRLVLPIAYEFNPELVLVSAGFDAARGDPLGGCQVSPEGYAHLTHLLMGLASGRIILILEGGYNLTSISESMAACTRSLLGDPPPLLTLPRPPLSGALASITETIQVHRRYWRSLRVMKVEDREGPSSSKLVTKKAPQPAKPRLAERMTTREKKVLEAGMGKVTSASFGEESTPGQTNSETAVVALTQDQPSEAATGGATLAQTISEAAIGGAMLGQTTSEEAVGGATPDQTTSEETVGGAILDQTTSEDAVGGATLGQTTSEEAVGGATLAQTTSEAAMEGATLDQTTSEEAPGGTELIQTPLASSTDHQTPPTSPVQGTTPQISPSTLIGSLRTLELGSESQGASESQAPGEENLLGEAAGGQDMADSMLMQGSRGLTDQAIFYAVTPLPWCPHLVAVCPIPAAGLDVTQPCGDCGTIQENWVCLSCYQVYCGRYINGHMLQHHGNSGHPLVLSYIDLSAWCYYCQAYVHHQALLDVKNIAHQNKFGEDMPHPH

[8] = system: HL-60; assay: Cytotoxicity against human HL-60 cells assessed as cell health index score at 0.005 to 100 uM incubated for 4 hrs by fluorescent dye based flow cytometric analysis; type: toxicity; settings: hl-60, 4 h, dose 0.005-100 µM
[9] = system: MM1.S; assay: Cytotoxicity against human MM1.S cells at 0.025 to 0.3 uM incubated for 24 hrs by cellTiter-Glo luminescent cell viability assay; type: functional, cell-based
[10] = system: MM1.S; assay: Effect on bortezomib-induced human MM1.S cells at 1 to 10 uM pretreated with bortezomib for 6 hrs followed by compound addition and measured after 7 to 18 hrs by cellTiter-Glo luminescent cell viability assay; type: functional, cell-based; settings: dose 1-10 µM, time 7-18 hrs
[11] = Cytotoxicity against green monkey […] cells; type: toxicity, cell-based; settings: chlorocebus sabaeus
[12] = system: RPMI-8226; assay: Cytotoxicity against human RPMI-8226 cells at 8 nM incubated for 24 hrs by cellTiter-Glo assay relative to control; type: functional
[13] = Cytotoxicity against human HEL 299 cells; type: toxicity, cell-based
[14] = Cytotoxicity against human HEp-2 cells; type: toxicity, cell-based
[15] = Cytotoxicity against dog MDCK cells; type: toxicity, cell-based, Canis lupus familiaris
[16] = system: MM1.S; assay: Cytotoxicity against human MM1.S cells assessed as reduction in cell viability at 1 to 10 nM incubated for 24 hrs by cellTiter-Glo luminescent cell viability assay; type: functional, cell-based
[17] = system: RPMI-8226; assay: Cytotoxicity against human RPMI-8226 cells at 2 to 12 nM incubated for 24 hrs by cellTiter-Glo assay; type: functional, cell-based; settings: RPMI-8226, 24 h
[18] = system: MM1.S; assay: Cytotoxicity against human MM1.S cells at 8 nM incubated for 24 hrs by cellTiter-Glo assay relative to control; type: functional
[19] = molecular target: T1, Protein deacetylase HDAC6; assay: Inhibition of HDAC6 deacetylase domain 2 (unknown origin) using fluorogenic HDAC substrate incubated for 15 to 60 mins by fluorimetric analysis

IC50 [7]: 33100 nM
Compound: O=C(O)CCc1nc2ccccc2c(=O)n1Cc1ccccc1

IC50 [7]: 5000 nM
Compound: Cn1c(CCC(=O)O)nc2ccccc2c1=O

IC50 [7]: 542000 nM
Compound: O=C(O)CCC1C(=O)N(Cc2ccccc2)c2ccccc21 (stereo not drawn)

IC50 [7]: 168000 nM
Compound: O=C(O)CCn1c2c(c3cc(F)ccc31)CS(=O)(=O)CC2

IC50 [7]: 61700 nM
Compound: CCCn1c(CCC(=O)O)nc2ccccc2c1=O

IC50 [7]: 20500 nM
Compound: CCn1c(CCC(=O)O)nc2ccccc2c1=O

IC50 [7]: 127000 nM
Compound: O=C(O)CCc1nc2ccccc2c(=O)n1Cc1ccc(F)cc1

The next lines start with the compound.

Compound: CC(/C=C/C(=O)NO)=C\[C@@H](C)C(=O)c1ccc(N(C)C)cc1 [TRICHOSTATIN]
CC50 [1]: 400 nM

Compound: CCOC(=O)CCc1nc(OCc2ccccc2)c2ccccc2n1
Activity [2]: Toxic
Activity [3]: Toxic
Activity [4]: Toxic
Activity [5]: Toxic
Activity [6]: Toxic

Compound: CC(C)C[C@@H](C=O)NC(=O)[C@H](CC(C)C)NC(=O)[C@H](CC(C)C)NC(=O)OCc1ccccc1 [MG-132] (Cbz-Leu-Leu-Leu-aldehyde)
Activity [8]: > 0.5
IC50 [9]: 150 nM

Compound: CCOC(=O)CCc1nc2ccccc2c(=O)n1C
Activity [10]: inactive
Activity [8]: 0.31

Compound: CC(C)C[C@H](NC(=O)[C@H](Cc1ccccc1)NC(=O)c1cnccn1)B(O)O [BORTEZOMIB]
CC50 [11]: 1200 nM
Activity [12]: ~50%
CC50 [13]: 1200 nM
Activity [8]: > 0.5
CC50 [14]: 1200 nM
CC50 [15]: 1200 nM
IC50 [16]: 4.32 nM
IC50 [17]: 9.6 nM
Activity [18]: ~10%
CC50 [1]: 1200 nM

Compound: CN1CCc2c(c3ccccc3n2Cc2ccc(C(=O)NO)cc2)C1 [TUBASTATIN A]
Activity [8]: > 0.5

Compound: O=C(O)CCn1c2c(c3cc(-c4ccc(F)cc4)ccc31)CS(=O)(=O)CC2
IC50 [7]: 162000 nM

Compound: CCOC(=O)CCc1nc2ccccc2c(=O)n1Cc1ccccc1
Activity [8]: 0.31

Compound: O=C(O)CCn1c2c(c3ccccc31)CS(=O)(=O)CC2
IC50 [7]: 285000 nM

Compound: O=C(NO)c1ccc(Cn2c3c(c4ccccc42)CS(=O)(=O)CC3)cc1
IC50 [19]: 19 nM

Compound: CCOC(=O)CCc1nc2ccccc2c(=O)n1Cc1ccc(F)cc1
Activity [8]: 0.31

Compound: O=C(O)CCc1nc2ccccc2c(=O)n1Cc1ccc(Cl)cc1
IC50 [7]: 68000 nM
